According to patent publication US20100256357A1, “HETEROCYCLES USEFUL AS INHIBITORS OF CARBONIC ANHYDRASE” (Agouron Pharmaceuticals, Inc., priority 2006, published 2010):
Where two headings read alike, the source gives them in different places.

Target: T1, human CA-II (Homo sapiens, UniProt P00918)
T1 construct: purchased Sigma-Aldrich C6165
Assay: Carbonic Anhydrase-II (CA-II) Fluorimetric Assay-IC50 Determination
Assay type: biochemical
Settings: for inhibition at 0.1 µM: at 100 nM (c7); for inhibition at 0.1 µM / inhibition at 0.01 µM: read-out: CA-II % inhibition at concentration of column 7; for inhibition at 0.01 µM: at 10 nM (c7)
Protocol: Carbonic Anhydrase-II (CA-II) Fluorimetric Assay-IC50 Determination
Compounds were diluted in DMSO at the concentration of 1 mM, then 50 μM and transferred to a 96-well plate for further dilutions (1:3 dilution, 11 points) in duplicate. Highest final concentration of compound in this CA-II Fluorimetric assay is 1 μM. Assays were conducted in a final volume of 100 μL in 50 mM Tris/HCl (pH 7.6), 100 mM Na2SO4 and 0.005% Tween-20 in a 96-well black assay plate. Fluorescein diacetate was used as the substrate. Enzyme inhibition was determined by pipetting 8 μL of human CA-II (5 nM, from Sigma-Aldrich, product #: C6165) into assay plate contained 2 μL of compound and 2 μL of substrate (10 μM) in 88 μL of assay buffer. The rate of the hydrolysis of fluorescein diacetate were measured spectrophometrically at 488 nm (excitation), 538 nm (emission) and 530 nm (cutoff) using a Molecular Devices SpectraMax M2 fluorescence reader at 25° C.

[1] = given instead of Kd (ND), read-out: CA-II IC50
[2] = Kd ND, IC50 given instead, read-out: CA-II IC50 (where Kd is ND)

| SMILES | inhibition at 0.1 µM | inhibition at 0.01 µM | other results |
| --- | --- | --- | --- |
| NS(=O)(=O)c1ccc(-n2nc(C(=O)N3CCCN(C=O)CC3)nc2Cc2ccccc2)cc1 [Example R-27, 4-(5-benzyl-3-[(4-formyl-14-diazepan-1-yl)carbonyl]-1H-124-triazol-1-yl)benzenesulfonamide] | 99% |  |  |
| Cc1cc(CN(C)C(=O)c2nc(Cc3ccccc3)n(-c3ccc(S(N)(=O)=O)cc3)n2)on1 [Example R-64, 1-[4-(aminosulfonyl)phenyl]-5-benzyl-N-methyl-N-[(3-methylisoxazol-5-yl)methyl]-1H-124-triazole-3-carboxamide] |  | 94% | IC50 [1]: 2.95 nM |
| NS(=O)(=O)c1ccc(-n2nc(C(=O)N3CCC(c4ccccn4)C3)nc2Cc2ccccc2)cc1 (stereo not drawn) [Example R-55, 4-(5-benzyl-3-[(3-pyridin-2-ylpyrrolidin-1-yl)carbonyl]-1H-124-triazol-1-yl)benzenesulfonamide] |  | 97% |  |
| NS(=O)(=O)c1ccc(-n2nc(C(=O)N3CC(Cc4ccccc4)C3)nc2Cc2ccccc2)cc1 [Example R-91, 4-{5-benzyl-3-[(3-benzylazetidin-1-yl)carbonyl]-1H-124-triazol-1-yl}benzenesulfonamide] |  |  | IC50 [2]: 3.19 nM |
| CCN(CCC#N)C(=O)c1nc(Cc2ccccc2)n(-c2ccc(S(N)(=O)=O)cc2)n1 [Example R-41, 1[4-(aminosulfonyl)phenyl]-5-benzyl-N-(2-cyanoethyl)-N-ethyl-1H-124-triazole-3-carboxamide] | 99% |  |  |
| COc1cccc(CN(C)C(=O)c2nc(Cc3ccccc3)n(-c3ccc(S(N)(=O)=O)cc3)n2)c1 [Example R-103, 1-[4-(aminosulfonyl)phenyl]-5-benzyl-N-(3-methoxybenzyl)-N-methyl-1H-124-triazole-3-carboxamide] |  |  | IC50 [2]: 3.12 nM |
| CCCN(CC1CCCO1)C(=O)c1nc(Cc2ccccc2)n(-c2ccc(S(N)(=O)=O)cc2)n1 (stereo not drawn) [Example R-95, 1-[4-(aminosulfonyl)phenyl]-5-benzyl-N-propyl-N-(tetrahydrofuran-2-ylmethyl)-1H-124-triazole-3-carboxamide] |  |  | IC50 [2]: 3.35 nM |
| CC(C)C1CCCCN1C(=O)c1nc(Cc2ccccc2)n(-c2ccc(S(N)(=O)=O)cc2)n1 (stereo not drawn) [Example R-104] |  |  | IC50 [2]: 3.51 nM |
| NS(=O)(=O)c1ccc(-n2nc(C(=O)N3CCc4nocc4C3)nc2Cc2ccccc2)cc1 [Example R-57, 4-[5-benzyl-3-(67-dihydroisoxazolo[43-c]pyridin-5(4H)-ylcarbonyl)-1H-124-triazol-1-yl]benzenesulfonamide] |  | 96% |  |
| CC1(c2ccccc2)CN(C(=O)c2nc(Cc3ccccc3)n(-c3ccc(S(N)(=O)=O)cc3)n2)CCO1 (stereo not drawn) [Example R-46, 4-{5-benzyl-3-[(2-methyl-2-phenylmorpholin-4-yl)carbonyl]-1H-124-triazol-1-yl}benzenesulfonamide] |  | 96% |  |
| NS(=O)(=O)c1ccc(-n2nc(C(=O)N3CCCC(c4cc[nH]n4)C3)nc2Cc2ccccc2)cc1 (stereo not drawn) [Example R-67, 4-(5-benzyl-3-{[3-(1H-pyrazol-3-yl)piperidin-1-yl]carbonyl}-1H-124-triazol-1-yl)benzenesulfonamide] |  | 97% | IC50 [1]: 3.72 nM |
| CC(C)CN(CC(C)C)C(=O)c1nc(Cc2ccccc2)n(-c2ccc(S(N)(=O)=O)cc2)n1 [Example R-40, 1-[4-(aminosulfonyl)phenyl]-5-benzyl-NN-diisobutyl-1H-124-triazole-3-carboxamide] | 98% |  | IC50 [1]: 3.34 nM |
| CN(Cc1nc2ccc(F)cc2[nH]1)C(=O)c1nc(Cc2ccccc2)n(-c2ccc(S(N)(=O)=O)cc2)n1 [Example R-49, 1-[4-(aminosulfonyl)phenyl]-5-benzyl-N-[(6-fluoro-1H-benzimidazol-2-yl)methyl]-N-methyl-1H-124-triazole-3-carboxamide] |  | 96% |  |
| NS(=O)(=O)c1ccc(-n2nc(C(=O)NCCNc3ccccn3)nc2Cc2ccccc2)cc1 [Example R-35, 1-[4-(aminosulfonyl)phenyl]-5-benzyl-N-[2-(pyridin-2-ylamino)ethyl]-1H-124-triazole-3-carboxamide] | 101% |  |  |
| NS(=O)(=O)c1ccc(-n2nc(C(=O)N3CCc4ccccc4C3)nc2Cc2ccccc2)cc1 [Example R-52, 4-[5-benzyl-3-(34-dihydroisoqionolin-2(1H)-ylcarbonyl)-1H-124-triazol-1-yl]benzenesulfonamide] |  | 96% | IC50 [1]: 2.83 nM |
| CN(C(=O)c1nc(Cc2ccccc2)n(-c2ccc(S(N)(=O)=O)cc2)n1)C(C1CC1)C1CC1 [Example R-28, 1-[4-(aminosulfonyl)phenyl)-5-benzyl-N-(dicyclopropylmethyl)-N-methyl-1H-124-triazole-3-carboxamide] | 99% |  |  |

| SMILES | inhibition at 0.1 µM | inhibition at 0.01 µM | other results |
| --- | --- | --- | --- |
| CC(C)N(CC(O)c1ccccc1)C(=O)c1nc(Cc2ccccc2)n(-c2ccc(S(N)(=O)=O)cc2)n1 (stereo not drawn) [Example R-45, 1-[4-(aminosulfonyl)phenyl]-5-benzyl-N-(2-hydroxy-2-phenylethyl)-N-isopropyl-1H-124-triazole-3-carboxamide] |  | 95% |  |
| CN(Cc1ccccc1)C(=O)c1nc(Cc2ccccc2)n(-c2ccc(S(N)(=O)=O)cc2)n1 [Example R-109, 1-[4-(aminosulfonyl)phenyl]-N5-dibenzyl-N-methyl-1H-124-triazole-3-carboxamide] |  |  | IC50 [2]: 3.61 nM |
| Cc1csc(CN(C)C(=O)c2nc(Cc3ccccc3)n(-c3ccc(S(N)(=O)=O)cc3)n2)n1 [Example R-56, 1-[4-(aminosulfonyl)phenyl]-5-benzyl-N-methyl-N-[(4-methyl-13-thiazol-2-yl)methyl]-1H-124-triazole-3-carboxamide] |  | 95% |  |
| CCc1ccc(CN(C)C(=O)c2nc(Cc3ccccc3)n(-c3ccc(S(N)(=O)=O)cc3)n2)cc1 [Example R-37, 1-[4-(aminosulfonyl)phenyl]-5-benzyl-N-(4-ethylbenzyl)-N-methyl-1H-124-triazole-3-carboxamide] | 99% |  | IC50 [1]: 2.89 nM |
| Cc1nc(CN(C)C(=O)c2nc(Cc3ccccc3)n(-c3ccc(S(N)(=O)=O)cc3)n2)cs1 [Example R-60, 1-[4-(aminosulfonyl)phenyl]-5-benzyl-N-methyl-N-[(2-methyl-13-thiazol-4-yl)methyl]-1H-124-triazole-3-carboxamide] |  | 92% |  |
| CN(CC(F)(F)F)C(=O)c1nc(Cc2ccccc2)n(-c2ccc(S(N)(=O)=O)cc2)n1 [Example R-101, 1-[4-(aminosulfonyl)phenyl]-5-benzyl-N-methyl-N-(222-trifluoroethyl)-1H-124-triazole-3-carboxamide] |  |  | IC50 [2]: 3.48 nM |
| C[C@@H]([C@@H](O)c1ccccc1)N(C)C(=O)c1nc(Cc2ccccc2)n(-c2ccc(S(N)(=O)=O)cc2)n1 [Example R-47, 1-[4-(aminosulfonyl)phenyl]-5-benzyl-N-[(1S2S)-2-hydroxy-1-methyl-2-phenylethyl]-N-methyl-1H-124-triazole-3-carboxamide] |  | 90% |  |
| NS(=O)(=O)c1ccc(-n2nc(C(=O)N3CCOCC3)nc2Cc2ccccc2)cc1 [Example R-32, 4-[5-benzyl-3-(morpholin-4-ylcarbonyl)-1H-124-triazol-1-yl]benzenesulfonamide] | 98% |  | IC50 [1]: 3.56 nM |
| CCCN(C(=O)c1nc(Cc2ccccc2)n(-c2ccc(S(N)(=O)=O)cc2)n1)[C@@H](C)CO [Example R-29, 1-[4-(aminosulfonyl)phenyl]-5-benzyl-N-[(1S)-2-hydroxy-1-methylethyl]-N-propyl-1H-124-triazole-3-carboxamide] | 98% |  |  |
| CN(CCOc1ccccc1)C(=O)c1nc(Cc2ccccc2)n(-c2ccc(S(N)(=O)=O)cc2)n1 [Example R-42, 1-[4-(aminosulfonyl)phenyl]-5-benzyl-N-methyl-N-(2-phenoxyethyl)-1H-124-triazole-3-carboxamide] | 98% |  | IC50 [1]: 3.78 nM |
| NS(=O)(=O)c1ccc(-n2nc(C(=O)N3C[C@@H](F)[C@H](F)C3)nc2Cc2ccccc2)cc1 [Example R-111, 4-(5-benzyl-3-{[(3R4R)-34-difluoropyrrolidin-1-yl]carbonyl}-1H-124-triazol-1-yl)benzenesulfonamide] |  |  | IC50 [2]: 3.14 nM |
| NS(=O)(=O)c1ccc(-n2nc(C(=O)N3CCc4conc4CC3)nc2Cc2ccccc2)cc1 [Example R-61, 4-[5-benzyl-3-(4578-tetrahydro-6H-isoxazolo[34-d]azepin-6-ylcarbonyl)-1H-124-triazol-1-yl]benzenesulfonamide] |  | 94% |  |
| CCc1nc(CN(C)C(=O)c2nc(Cc3ccccc3)n(-c3ccc(S(N)(=O)=O)cc3)n2)no1 [Example R-70, 1-[4-(aminosulfonyl)phenyl]-5-benzyl-N-[(5-ethyl-124-oxadiazol-3-yl)methyl]-N-methyl-1H-124-triazole-3-carboxamide] |  | 94% | IC50 [1]: 3.06 nM |
| CCN(CCN(C)C)C(=O)c1nc(Cc2ccccc2)n(-c2ccc(S(N)(=O)=O)cc2)n1 [Example R-43, 1-[4-(aminosulfonyl)phenyl]-5-benzyl-N-[2-(dimethylamino)ethyl]-N-ethyl-1H-124-triazole-3-carboxamide] | 100% |  |  |
| CC(C)C1(CO)CCN(C(=O)c2nc(Cc3ccccc3)n(-c3ccc(S(N)(=O)=O)cc3)n2)CC1 [Example R-73, 4-(5-benzyl-3-{[4-(hydroxymethyl)-4-isopropylpiperidin-1-yl]carbonyl}-1H-124-triazol-1-yl)benzenesulfonamide] |  |  | IC50 [2]: 3.5 nM |
